Common to all, as to type: cell-based
In experiment [1] the test system is PANC08.13 (pancreatic cancer cell line). In words: KRAS Cell Titer Glo (CTG) viability assay, Panc08.13. The note with it: Homo sapiens, PANC-08-13, 168 h, Panc08.13, 7-day; geometric mean when n>1. An excerpt: (§1) The CellTiter-Glo® (CTG) Luminescent Cell Viability Assay is a homogeneous method of determining the number of viable cells in culture based on quantitation of the ATP present, an indicator of metabolically active cells. The CTG is designed for use with multi-well formats, making it ideal for automated high-throughput screening (HTS), cell proliferation and cytotoxicity assays. The homogeneous assay procedure involves adding the single reagent (CellTiter-Glo® Reagent) directly to cells cultured in serum-supplemented medium. Cell washing, removal of medium and multiple pipetting steps are not required. The system detects as few as 15 cells per well in a 384-well format in 10 minutes after adding reagent and mixing.
(§2) Cells are grown in humidified 5% CO2 incubator at 37° C. using the culture conditions outlined below. All cell culture media reagents were purchased from Gibco. Cell lines purchased from ATCC: H358 (non-small cell lung cancer cell line), SW620 (colorectal cancer cell line), PANC08.13 (RPM11640+10% FBS+10 units/ml Insulin, pancreatic cancer cell line). Test and control compounds are dispensed as nanoliter drops according to desired final concentrations in 0.1% DMSO using Echo Acoustic Dispenser onto 384 assay plates (Corning, Cat #3764) prior to cell seeding. Cells were seeded in 40 μL volume per well at the following cell densities (cells per well): H358 (300), SW620 (750), PANC 08.13 (600). Cells are incubated in the presence of compound for 7-days. Viability is determined on Day 7 using CellTiter-Glo® (CTG) Luminescent Cell Viability Assay (Promega). CTG is added to a final volume of 20 μl per well and incubated at room temperature for 15 minutes before luminescence is captured using an EnVision Reader with LUM384 US protocol. Data is analyzed using Activity Base to determine compound response and will be represented either as a percent effect (PCTEFF) or percent control (PCTOCTL) as described: Zero percent effect control (ZPE) (Negative control)—100% DMSO. Hundred percent effect (HPE) (Positive control)—1 μM Trametinib (GSK1120212, MEK inhibitor) (4 nl of 10 mM and 36 nl of DMSO per well). The following equations/nomenclature are used (% Effect; PCTEFF) and (% of Control; PCTOCTL): PCTEFF: 100*(Raw_Data_Value−HPE/ZPE−HPE), PCTOCTL: 100*Raw_Data_Value/User_Defined_Array), where the User_Defined_Array is either summarized HPE or ZPE.

Experiment [2] relates to H358 (non-small cell lung cancer cell line). Put plainly: KRAS Cell Titer Glo (CTG) viability assay, H358. The note with it: Homo sapiens, NCI-H358, 168 h, H358, 7-day; geometric mean when n>1.
Excerpt: as §1, §2

For experiment [3], the system named is SW620 (colorectal cancer cell line). Put plainly: KRAS Cell Titer Glo (CTG) viability assay, SW620. The note with it: Homo sapiens, SW-620, 168 h, SW620, 7-day; geometric mean when n>1.
Excerpt: as §1, §2

This is an account of results in US20260306506A1, “PYRIDO[4,3-D]PYRIMIDINE COMPOUNDS” (Pfizer Inc., priority 2023, published 2026).

With `C#Cc1cccc2cc(O)cc(-c3ncc4c(N5C[C@@H]6C[C@H](C5)[C@H](O)C6)nc(OC[C@@]56CCCN5C[C@H](F)C6)nc4c3F)c12` [Example 9, (1R,5R,6R)-3-[7-(8-ethynyl-3-hydroxynaphthalen-1-yl)-8-fluoro-2-{[(2R,7aS)-2-fluorotetrahydro-1H-pyrrolizin-7a(5H)-yl]methoxy}pyrido[4,3-d]pyrimidin-4-yl]-3-azabicyclo[3.2.1]octan-6-ol], the IC50 stood at 12.3 nM in experiment [1], 112 nM in experiment [2] and 166 nM in experiment [3].

For `C#Cc1c(F)ccc2cc(O)cc(-c3ncc4c(N5C[C@@H]6C[C@H](C5)[C@H](O)C6)nc(OC[C@@]56CCCN5C[C@H](F)C6)nc4c3F)c12` [Example 10, (1R,5R,6R)-3-[7-(8-ethynyl-7-fluoro-3-hydroxynaphthalen-1-yl)-8-fluoro-2-{[(2R,7aS)-2-fluorotetrahydro-1H-pyrrolizin-7a(5H)-yl]methoxy}pyrido[4,3-d]pyrimidin-4-yl]-3-azabicyclo[3.2.1]octan-6-ol], the figures for the IC50 in experiment [1], in experiment [2] and in experiment [3] were 8.15 nM, 26.9 nM and 35.7 nM, respectively.

Consider `N#CC[C@@H]1CCCN(c2nc(OC[C@@]34CCCN3C[C@H](F)C4)nc3c(F)c(-c4cc(O)cc5ccc(F)c(F)c45)ncc23)C1` [Example 12, {(3S)-1-[7-(7,8-difluoro-3-hydroxynaphthalen-1-yl)-8-fluoro-2-{[(2R,7aS)-2-fluorotetrahydro-1H-pyrrolizin-7a(5H)-yl]methoxy}pyrido[4,3-d]pyrimidin-4-yl]piperidin-3-yl}acetonitrile], for which the values for the IC50 in experiment [1], in experiment [2] and in experiment [3] were 19.8 nM, 115 nM and 136 nM, respectively.

Turning to `Oc1cc(-c2ncc3c(N4C[C@@H]5C[C@H](C4)[C@H](O)C5)nc(OC[C@@]45CCCN4C[C@H](F)C5)nc3c2F)c2c(F)c(F)ccc2c1` [Example 14, (1R,5R,6R)-3-[7-(7,8-difluoro-3-hydroxynaphthalen-1-yl)-8-fluoro-2-{[(2R,7aS)-2-fluorotetrahydro-1H-pyrrolizin-7a(5H)-yl]methoxy}pyrido[4,3-d]pyrimidin-4-yl]-3-azabicyclo[3.2.1]octan-6-ol], the IC50 stood at 10.8 nM in experiment [1], 41.6 nM in experiment [2] and 35.3 nM in experiment [3].

Consider `C#Cc1c(F)ccc2cc(O)cc(-c3ncc4c(N5CCC[C@@H](CC#N)C5)nc(OC[C@@]56CCCN5C[C@H](F)C6)nc4c3F)c12` [Example 15, {(3S)-1-[7-(8-ethynyl-7-fluoro-3-hydroxynaphthalen-1-yl)-8-fluoro-2-{[(2R,7aS)-2-fluorotetrahydro-1H-pyrrolizin-7a(5H)-yl]methoxy}pyrido[4,3-d]pyrimidin-4-yl]piperidin-3-yl}acetonitrile], for which the IC50 in experiment [1] is 121 nM; in experiment [2], 493 nM; in experiment [3], 871 nM.

Take `Oc1cc(-c2ncc3c(N4C[C@@H]5C[C@H](C4)[C@H](O)C5)nc(OC[C@@]45CCCN4C[C@H](F)C5)nc3c2F)c2c(Cl)cccc2c1` [Example 20, (1R,5R,6R)-3-[7-(8-chloro-3-hydroxynaphthalen-1-yl)-8-fluoro-2-{[(2R,7aS)-2-fluorotetrahydro-1H-pyrrolizin-7a(5H)-yl]methoxy}pyrido[4,3-d]pyrimidin-4-yl]-3-azabicyclo[3.2.1]octan-6-ol]: the figures for the IC50 in experiment [1], in experiment [2] and in experiment [3] were 45.2 nM, 142 nM and 164 nM, respectively.

Take `C#Cc1c(F)ccc2cc(O)cc(-c3nc4c5c(nc(OC[C@@]67CCCN6C[C@H](F)C7)nc5c3F)N3CCCC[C@H]3CO4)c12` [Example 23, 5-ethynyl-6-fluoro-4-[(8aS)-4-fluoro-2-{[(2R,7aS)-2-fluorotetrahydro-1H-pyrrolizin-7a(5H)-yl]methoxy}-8,8a,9,10,11,12-hexahydro-7-oxa-1,3,6,12a-tetraazabenzo[4,5]cyclohepta[1,2,3-de]naphthalen-5-yl]naphthalen-2-ol]: the 50% inhibitory concentration (IC50) was 1.2 nM in experiment [1], 74 nM in experiment [2] and 46 nM in experiment [3].
